# Reference: US9688654B2, “Compounds inhibiting leucine-rich repeat kinase enzyme activity” (Merck Sharp & Dohme Corp., priority 2013, dated 2017)
# Assays:
# Format in all cases: biochemical
# [1] = biological target: T1, LRRK2 (G2019S mutation, GST-LRRK2 (amino acids 970-2527)) (Homo sapiens, UniProt Q5S007, G2019S); assay: LRRK2 Km ATP LanthaScreen Assay; conditions: mean IC50
# T1 construct: GST-LRRK2 (amino acids 970-2527); GST (N); purchased Life Technologies Corporation
# Method: Unless otherwise noted, all LRRK2 IC50 data presented in tables refers to the LRRK2 Km ATP LanthaScreen™ Assay that is described in the Biological Assay section.
# The data presented for the 5 mM and Km ATP LanthaScreen™ Assay represents mean IC50 values based on several test results and may have reasonable. deviations depending on the specific conditions and reagents used. Reagents for the LRRK2 5 mM and Km ATP LanthaScreen™ Assay were purchased from Life Technologies Corporation.
# • a) 400 nl of a 1:2.15 serial dilution of test compound (98 μM top assay concentration) is spotted via Labcyte Echo to certain wells in a 384 well black, untreated plate. Control wells contain 400 nl of either DMSO or 400 nl of a known inhibitor in DMSO. • b) 10 μl of a 2.5 nM LRRK2 (G2019S mutation, GST-LRRK2 (amino acids 970-2527)) enzyme solution in 1× assay buffer (50 mM Tris pH 8.5, 10 mM MgCl2, 0.01% Brij-35, 1.0 mM EGTA, 2 mM DTT, 0.05 mM NaVO4) is added to all wells. • c) A 30 minute room temperature incubation is followed by addition of 10 μl […]) After a 35 minute room temperature incubation, 20 μl of TR-FRET Dilution Buffer (Invitrogen PV3756B) containing 4 nM Tb-labeled anti-phospho LRRKtide antibody and 20 mM EDTA is added to all wells. • e) Plates are incubated at room temperature for 1 hour and read on an Envision™ multi-mode plate reader with LanthaScreen™ settings. Results are analysed using Assay Data Analyzer. […] Results are analysed using Assay Data Analyzer.
# AURKB (Aurora B) = biological target: T2, AURKB (Aurora B) (Homo sapiens, UniProt Q96GD4); assay: Kinase selectivity, Z'-LYTE platform; conditions: 1 micromolar compound, read-out: percent inhibition AURKB (Aurora B)
# T2 construct: purchased Life Technologies Corporation
# T2 sequence (Q96GD4 whole entry): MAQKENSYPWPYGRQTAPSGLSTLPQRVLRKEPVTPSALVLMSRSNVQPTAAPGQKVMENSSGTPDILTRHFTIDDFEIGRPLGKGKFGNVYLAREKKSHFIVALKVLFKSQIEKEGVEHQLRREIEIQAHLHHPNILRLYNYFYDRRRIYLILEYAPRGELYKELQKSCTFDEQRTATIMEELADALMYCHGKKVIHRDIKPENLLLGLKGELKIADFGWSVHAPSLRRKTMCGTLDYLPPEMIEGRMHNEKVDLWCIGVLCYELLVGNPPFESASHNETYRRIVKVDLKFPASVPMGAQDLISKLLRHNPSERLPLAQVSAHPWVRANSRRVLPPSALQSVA
# BRAF V599E = biological target: T3, BRAF V599E (Homo sapiens, UniProt P15056, V600E); assay: Kinase selectivity, Z'-LYTE platform; conditions: 1 micromolar compound, read-out: percent inhibition BRAF V599E
# T3 construct: purchased Life Technologies Corporation
# T3 sequence (P15056 whole entry V600E): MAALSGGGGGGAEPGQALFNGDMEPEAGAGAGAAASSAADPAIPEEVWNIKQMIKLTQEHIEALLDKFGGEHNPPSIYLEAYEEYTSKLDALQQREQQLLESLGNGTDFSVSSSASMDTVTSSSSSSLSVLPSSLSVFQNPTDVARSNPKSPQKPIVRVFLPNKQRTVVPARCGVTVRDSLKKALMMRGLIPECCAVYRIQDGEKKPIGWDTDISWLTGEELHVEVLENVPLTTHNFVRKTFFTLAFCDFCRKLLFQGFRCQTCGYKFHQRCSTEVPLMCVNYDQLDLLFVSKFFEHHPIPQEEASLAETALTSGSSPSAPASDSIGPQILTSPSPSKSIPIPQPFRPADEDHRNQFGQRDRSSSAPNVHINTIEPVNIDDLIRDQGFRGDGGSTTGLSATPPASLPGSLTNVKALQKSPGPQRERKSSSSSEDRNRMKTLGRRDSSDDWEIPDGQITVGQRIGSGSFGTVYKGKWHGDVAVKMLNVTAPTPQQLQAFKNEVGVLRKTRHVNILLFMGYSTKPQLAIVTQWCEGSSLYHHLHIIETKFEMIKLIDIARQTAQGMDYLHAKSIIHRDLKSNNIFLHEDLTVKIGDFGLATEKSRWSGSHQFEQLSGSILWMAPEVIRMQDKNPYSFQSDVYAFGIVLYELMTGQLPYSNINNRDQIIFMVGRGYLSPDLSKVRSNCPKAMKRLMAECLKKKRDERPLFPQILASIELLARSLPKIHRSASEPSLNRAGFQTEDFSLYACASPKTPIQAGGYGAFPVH
# CDK1/cyclin B = biological target: T4, CDK1/cyclin B (Homo sapiens, UniProt P06493); assay: Kinase selectivity, Z'-LYTE platform; conditions: 1 micromolar compound, read-out: percent inhibition CDK1/cyclin B
# T4 construct: purchased Life Technologies Corporation
# T4 sequence (P06493 whole entry): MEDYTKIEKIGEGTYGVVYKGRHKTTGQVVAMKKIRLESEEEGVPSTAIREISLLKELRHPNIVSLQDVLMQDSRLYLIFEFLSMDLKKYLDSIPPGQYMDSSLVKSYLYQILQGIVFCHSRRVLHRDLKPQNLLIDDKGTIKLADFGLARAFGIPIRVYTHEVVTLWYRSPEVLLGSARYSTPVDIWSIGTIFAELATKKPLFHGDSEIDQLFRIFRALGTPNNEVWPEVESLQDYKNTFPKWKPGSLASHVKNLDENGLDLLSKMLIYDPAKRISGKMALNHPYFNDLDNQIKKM
# T4 sequence (P14635 whole entry partner): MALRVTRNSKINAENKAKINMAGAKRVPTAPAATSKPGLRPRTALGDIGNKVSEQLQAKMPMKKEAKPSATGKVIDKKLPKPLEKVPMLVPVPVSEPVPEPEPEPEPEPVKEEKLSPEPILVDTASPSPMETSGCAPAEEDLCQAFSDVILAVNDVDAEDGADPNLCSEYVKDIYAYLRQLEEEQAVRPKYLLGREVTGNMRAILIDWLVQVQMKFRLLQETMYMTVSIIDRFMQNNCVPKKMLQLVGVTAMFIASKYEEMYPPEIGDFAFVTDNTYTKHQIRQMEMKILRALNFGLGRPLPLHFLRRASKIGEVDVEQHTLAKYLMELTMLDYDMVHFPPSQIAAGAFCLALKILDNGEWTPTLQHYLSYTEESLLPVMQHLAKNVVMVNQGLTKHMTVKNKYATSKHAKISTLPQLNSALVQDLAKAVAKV
# CHEK2 (CHK2) = biological target: T5, CHEK2 (CHK2) (Homo sapiens, UniProt O96017); assay: Kinase selectivity, Z'-LYTE platform; conditions: 1 micromolar compound, read-out: percent inhibition CHEK2 (CHK2)
# T5 construct: purchased Life Technologies Corporation
# CLK2 = biological target: T6, CLK2 (Homo sapiens, UniProt P49760); assay: Kinase selectivity, Z'-LYTE platform; conditions: 1 micromolar compound, read-out: percent inhibition CLK2
# T6 construct: purchased Life Technologies Corporation
# T6 sequence (P49760 whole entry): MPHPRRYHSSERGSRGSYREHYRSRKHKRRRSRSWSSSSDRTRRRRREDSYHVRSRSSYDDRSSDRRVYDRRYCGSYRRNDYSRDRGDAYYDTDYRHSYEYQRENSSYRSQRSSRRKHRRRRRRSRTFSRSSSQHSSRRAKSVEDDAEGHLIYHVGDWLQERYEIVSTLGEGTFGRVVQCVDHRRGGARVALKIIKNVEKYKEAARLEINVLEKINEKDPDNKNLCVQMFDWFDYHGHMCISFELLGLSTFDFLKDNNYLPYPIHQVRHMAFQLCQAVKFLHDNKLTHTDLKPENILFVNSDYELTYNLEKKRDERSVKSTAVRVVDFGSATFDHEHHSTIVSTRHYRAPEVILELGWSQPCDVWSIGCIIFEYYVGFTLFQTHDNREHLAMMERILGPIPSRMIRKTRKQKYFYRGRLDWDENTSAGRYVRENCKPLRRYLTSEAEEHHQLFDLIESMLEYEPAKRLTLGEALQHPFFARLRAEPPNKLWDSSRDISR
# DYRK1A = biological target: T7, DYRK1A (Homo sapiens, UniProt Q13627); assay: Kinase selectivity, Z'-LYTE platform; conditions: 1 micromolar compound, read-out: percent inhibition DYRK1A
# T7 construct: purchased Life Technologies Corporation
# IRAK1 = biological target: T8, IRAK1 (Homo sapiens, UniProt P51617); assay: Kinase selectivity, Adapta platform; conditions: 1 micromolar compound, read-out: percent inhibition IRAK1
# T8 construct: purchased Life Technologies Corporation
# JAK3 = biological target: T9, JAK3 (Homo sapiens, UniProt P52333); assay: Kinase selectivity, Z'-LYTE platform; conditions: 1 micromolar compound, read-out: percent inhibition JAK3
# T9 construct: purchased Life Technologies Corporation
# T9 sequence (P52333 1-1124): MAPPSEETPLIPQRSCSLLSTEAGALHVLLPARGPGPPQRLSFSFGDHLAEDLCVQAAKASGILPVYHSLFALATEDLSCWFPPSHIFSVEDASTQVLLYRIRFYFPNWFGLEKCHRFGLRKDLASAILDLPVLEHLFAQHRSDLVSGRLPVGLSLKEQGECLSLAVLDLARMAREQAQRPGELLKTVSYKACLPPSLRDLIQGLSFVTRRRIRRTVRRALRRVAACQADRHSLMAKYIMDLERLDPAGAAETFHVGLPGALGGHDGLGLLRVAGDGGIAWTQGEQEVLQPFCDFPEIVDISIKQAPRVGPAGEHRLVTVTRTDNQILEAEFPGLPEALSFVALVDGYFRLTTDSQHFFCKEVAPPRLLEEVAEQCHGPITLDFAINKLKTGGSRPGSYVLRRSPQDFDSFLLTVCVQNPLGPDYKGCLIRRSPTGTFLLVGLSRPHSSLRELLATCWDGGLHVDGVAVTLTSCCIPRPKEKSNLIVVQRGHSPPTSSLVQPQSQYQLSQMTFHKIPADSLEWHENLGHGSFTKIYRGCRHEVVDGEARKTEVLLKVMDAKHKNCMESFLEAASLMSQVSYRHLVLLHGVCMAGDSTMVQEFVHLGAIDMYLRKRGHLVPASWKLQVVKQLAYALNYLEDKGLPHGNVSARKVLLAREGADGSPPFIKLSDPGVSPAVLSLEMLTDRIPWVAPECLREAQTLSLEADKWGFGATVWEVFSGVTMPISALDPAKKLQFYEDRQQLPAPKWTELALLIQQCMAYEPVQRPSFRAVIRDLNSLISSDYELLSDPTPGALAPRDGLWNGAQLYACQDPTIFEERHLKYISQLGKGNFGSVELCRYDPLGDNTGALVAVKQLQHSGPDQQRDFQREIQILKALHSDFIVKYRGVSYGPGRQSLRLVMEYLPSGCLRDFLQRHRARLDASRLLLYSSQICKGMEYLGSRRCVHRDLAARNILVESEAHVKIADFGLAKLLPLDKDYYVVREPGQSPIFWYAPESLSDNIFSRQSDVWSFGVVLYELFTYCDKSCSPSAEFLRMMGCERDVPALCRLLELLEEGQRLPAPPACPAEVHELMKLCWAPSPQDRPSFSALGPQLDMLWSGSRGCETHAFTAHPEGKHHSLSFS
# MAPK1 (ERK2) = biological target: T10, MAPK1 (ERK2) (Homo sapiens, UniProt P28482); assay: Kinase selectivity, Z'-LYTE platform; conditions: 1 micromolar compound, read-out: percent inhibition MAPK1 (ERK2)
# T10 construct: purchased Life Technologies Corporation
# T10 sequence (P28482 whole entry): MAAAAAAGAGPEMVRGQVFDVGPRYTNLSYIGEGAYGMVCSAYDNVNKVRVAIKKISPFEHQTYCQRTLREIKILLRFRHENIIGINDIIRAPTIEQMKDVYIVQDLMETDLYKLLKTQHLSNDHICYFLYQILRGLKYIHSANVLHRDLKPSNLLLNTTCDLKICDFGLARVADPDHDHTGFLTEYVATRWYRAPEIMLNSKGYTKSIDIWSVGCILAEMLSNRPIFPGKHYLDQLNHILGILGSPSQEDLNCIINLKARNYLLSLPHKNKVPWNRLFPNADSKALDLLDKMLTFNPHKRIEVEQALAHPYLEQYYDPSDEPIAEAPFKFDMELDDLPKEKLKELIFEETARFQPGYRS
# MAPK8 (JNK1) = biological target: T11, MAPK8 (JNK1) (Homo sapiens, UniProt P45983); assay: Kinase selectivity, Z'-LYTE platform; conditions: 1 micromolar compound, read-out: percent inhibition MAPK8 (JNK1)
# T11 construct: purchased Life Technologies Corporation
# T11 sequence (P45983 whole entry): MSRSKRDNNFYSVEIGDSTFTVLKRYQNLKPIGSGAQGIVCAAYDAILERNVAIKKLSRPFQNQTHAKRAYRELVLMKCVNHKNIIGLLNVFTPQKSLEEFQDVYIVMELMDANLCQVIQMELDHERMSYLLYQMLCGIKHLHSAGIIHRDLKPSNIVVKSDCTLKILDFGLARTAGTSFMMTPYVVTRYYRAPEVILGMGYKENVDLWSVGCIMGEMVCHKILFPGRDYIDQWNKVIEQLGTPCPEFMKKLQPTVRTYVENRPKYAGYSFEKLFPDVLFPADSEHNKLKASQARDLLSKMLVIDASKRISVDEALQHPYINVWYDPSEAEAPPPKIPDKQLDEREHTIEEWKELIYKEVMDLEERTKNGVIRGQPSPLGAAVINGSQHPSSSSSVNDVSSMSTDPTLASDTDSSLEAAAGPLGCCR
# T1 sequence (Q5S007 970-2527 G2019S): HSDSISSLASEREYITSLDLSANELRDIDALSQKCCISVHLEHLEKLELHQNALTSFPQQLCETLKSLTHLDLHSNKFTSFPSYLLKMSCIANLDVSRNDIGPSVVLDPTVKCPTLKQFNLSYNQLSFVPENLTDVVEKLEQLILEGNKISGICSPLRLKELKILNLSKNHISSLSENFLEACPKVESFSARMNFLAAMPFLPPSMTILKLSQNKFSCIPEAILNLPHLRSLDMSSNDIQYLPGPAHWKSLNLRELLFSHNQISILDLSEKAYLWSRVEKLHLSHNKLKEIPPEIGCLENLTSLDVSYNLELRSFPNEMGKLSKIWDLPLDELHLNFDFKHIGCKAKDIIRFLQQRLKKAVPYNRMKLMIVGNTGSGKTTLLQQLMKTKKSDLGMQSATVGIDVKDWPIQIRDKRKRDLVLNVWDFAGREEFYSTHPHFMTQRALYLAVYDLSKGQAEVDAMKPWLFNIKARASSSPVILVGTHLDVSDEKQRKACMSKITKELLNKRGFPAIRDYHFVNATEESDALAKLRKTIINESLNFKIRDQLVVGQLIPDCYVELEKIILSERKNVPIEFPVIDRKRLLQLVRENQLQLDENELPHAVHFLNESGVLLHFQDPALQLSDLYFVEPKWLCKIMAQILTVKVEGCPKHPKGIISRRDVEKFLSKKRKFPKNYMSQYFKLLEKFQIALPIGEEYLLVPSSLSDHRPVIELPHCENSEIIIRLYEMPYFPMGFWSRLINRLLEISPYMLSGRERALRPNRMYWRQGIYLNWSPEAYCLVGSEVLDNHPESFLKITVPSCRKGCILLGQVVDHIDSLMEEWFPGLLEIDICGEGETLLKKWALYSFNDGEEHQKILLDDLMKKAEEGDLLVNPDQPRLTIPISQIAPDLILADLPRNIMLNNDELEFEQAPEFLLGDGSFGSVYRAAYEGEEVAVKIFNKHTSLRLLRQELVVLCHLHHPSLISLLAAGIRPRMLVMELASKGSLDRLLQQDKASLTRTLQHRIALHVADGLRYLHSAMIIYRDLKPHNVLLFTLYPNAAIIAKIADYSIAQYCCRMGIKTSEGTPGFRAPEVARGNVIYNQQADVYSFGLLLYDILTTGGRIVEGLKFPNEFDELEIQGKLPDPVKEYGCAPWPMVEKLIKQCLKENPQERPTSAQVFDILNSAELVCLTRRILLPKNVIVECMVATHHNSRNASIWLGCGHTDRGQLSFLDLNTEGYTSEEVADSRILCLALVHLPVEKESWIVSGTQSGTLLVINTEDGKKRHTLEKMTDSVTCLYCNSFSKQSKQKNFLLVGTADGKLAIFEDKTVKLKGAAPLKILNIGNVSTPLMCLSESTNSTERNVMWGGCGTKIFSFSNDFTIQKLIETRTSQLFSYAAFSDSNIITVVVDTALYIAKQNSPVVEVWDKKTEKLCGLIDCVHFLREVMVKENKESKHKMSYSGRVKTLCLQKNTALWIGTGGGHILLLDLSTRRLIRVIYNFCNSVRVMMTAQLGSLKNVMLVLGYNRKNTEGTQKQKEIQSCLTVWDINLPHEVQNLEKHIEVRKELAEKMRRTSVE
smiles,measurement,setting,value
FC1(F)CCN(c2cc(-c3n[nH]c4ccc(OC5CC5)cc34)ccn2)CC1 [Example 8],IC50,[1],30 nM
CC1(Oc2ccc3[nH]nc(-c4ccnc(N5CC6CCC(C5)O6)c4)c3c2)CC1 [Example 4],IC50,[1],23 nM
[O-][S+]1CCCN(c2cc(-c3n[nH]c4ccc(OC5CC5)cc34)ccn2)CC1 (stereo not drawn) [Example 15],IC50,[1],44 nM
FC1(F)CN(c2cc(-c3n[nH]c4ccc(OC5CC5)cc34)ccn2)C1 [Example 25],IC50,[1],40 nM
c1cc(-c2n[nH]c3ccc(OC4COC4)cc23)cc(N2CCOCC2)n1 [Example 2],IC50,[1],20 nM
CN1CCN(c2cc(-c3n[nH]c4ccc(OC5(C)CC5)cc34)ccn2)CC1 [Example 32],IC50,[1],0.6 nM
C[C@@H]1CN(c2cc(-c3n[nH]c4ccc(OC5(C)CC5)cc34)ccn2)C[C@H](C)O1 [Example 30],IC50,[1],0.9 nM
same,inhibition at 1 µM,AURKB (Aurora B),6%
same,inhibition at 1 µM,BRAF V599E,5%
same,inhibition at 1 µM,CDK1/cyclin B,9%
same,inhibition at 1 µM,CHEK2 (CHK2),8%
same,inhibition at 1 µM,CLK2,49%
same,inhibition at 1 µM,DYRK1A,3%
same,inhibition at 1 µM,IRAK1,-17%
same,inhibition at 1 µM,JAK3,37%
same,inhibition at 1 µM,MAPK1 (ERK2),10%
same,inhibition at 1 µM,MAPK8 (JNK1),39%
C[C@H]1[C@H](O)[C@@H](O)CN1c1cc(-c2n[nH]c3ccc(OC4(C)CC4)cc23)ccn1 [Example 34],IC50,[1],0.7 nM
FC1(F)CCN(c2cc(-c3n[nH]c4ccc(OC5CC5)cc34)ccn2)C1 [Example 21],IC50,[1],19 nM
Fc1cc2[nH]nc(-c3ccnc(N4CCOCC4)c3)c2cc1OC1CC1 [Example 3],IC50,[1],1.2 nM
CC1(Oc2ccc3[nH]nc(-c4ccnc(N5CC[C@H](N)C5)c4)c3c2)CC1 [Example 37],IC50,[1],2.6 nM
CO[C@H]1CN(c2cc(-c3n[nH]c4ccc(OC5CC5)cc34)ccn2)C[C@@H]1O [Example 10],IC50,[1],23 nM
c1cnn(C2CCN(c3cc(-c4n[nH]c5ccc(OC6CC6)cc45)ccn3)CC2)c1 [Example 13],IC50,[1],16 nM
O=S1(=O)CC2CC(C1)N(c1cc(-c3n[nH]c4ccc(OC5CC5)cc34)ccn1)C2 (stereo not drawn) [Example 11],IC50,[1],111 nM
CC1(Oc2ccc3[nH]nc(-c4ccnc(N5CCOCC5)c4)c3c2)CC1 [Example 27],IC50,[1],0.6 nM
same,inhibition at 1 µM,AURKB (Aurora B),15%
same,inhibition at 1 µM,BRAF V599E,29%
same,inhibition at 1 µM,CDK1/cyclin B,33%
same,inhibition at 1 µM,CHEK2 (CHK2),14%
same,inhibition at 1 µM,CLK2,46%
same,inhibition at 1 µM,DYRK1A,6%
same,inhibition at 1 µM,IRAK1,18%
same,inhibition at 1 µM,JAK3,56%
same,inhibition at 1 µM,MAPK1 (ERK2),23%
same,inhibition at 1 µM,MAPK8 (JNK1),61%
C[C@H]1[C@H](N)[C@@H](O)CN1c1cc(-c2n[nH]c3ccc(OC4(C)CC4)cc23)ccn1 [Example 35],IC50,[1],1.1 nM
O[C@H]1CCN(c2cc(-c3n[nH]c4ccc(OC5CC5)cc34)ccn2)C1 [Example 24],IC50,[1],29 nM
c1cc(-c2n[nH]c3ccc(OC4CC4)cc23)cc(N2CCOC3(CC3)C2)n1 [Example 6],IC50,[1],17 nM
c1cc(-c2n[nH]c3ccc(OC4CC4)cc23)cc(N2CCOCC2)n1 [Example 1],IC50,[1],40 nM
c1cc(-c2n[nH]c3ccc(OC4CC4)cc23)cc(N2CCc3oc(C4CC4)nc3C2)n1 [Example 19],IC50,[1],54 nM
c1cc(-c2n[nH]c3ccc(OC4CC4)cc23)cc(N2CCC(n3cncn3)CC2)n1 [Example 12],IC50,[1],10 nM
CC1(Oc2ccc3[nH]nc(-c4ccnc(N5C6CCC5COC6)c4)c3c2)CC1 [Example 5],IC50,[1],67 nM
C[C@H]1CN(c2cc(-c3n[nH]c4ccc(OC5(C)CC5)cc34)ccn2)CCO1 [Example 28],IC50,[1],0.6 nM
same,inhibition at 1 µM,AURKB (Aurora B),11%
same,inhibition at 1 µM,BRAF V599E,19%
same,inhibition at 1 µM,CDK1/cyclin B,25%
same,inhibition at 1 µM,CHEK2 (CHK2),4%
same,inhibition at 1 µM,CLK2,42%
same,inhibition at 1 µM,DYRK1A,2%
same,inhibition at 1 µM,IRAK1,-5%
same,inhibition at 1 µM,JAK3,49%
same,inhibition at 1 µM,MAPK1 (ERK2),23%
same,inhibition at 1 µM,MAPK8 (JNK1),58%
CO[C@H]1CCN(c2cc(-c3n[nH]c4ccc(OC5CC5)cc34)ccn2)C1 [Example 22],IC50,[1],17 nM
O=S1(=O)CCCN(c2cc(-c3n[nH]c4ccc(OC5CC5)cc34)ccn2)CC1 [Example 16],IC50,[1],71 nM
F[C@H]1CN(c2cc(-c3n[nH]c4ccc(OC5CC5)cc34)ccn2)C[C@@H]1F [Example 14],IC50,[1],19 nM
CN1CCN(c2cc(-c3n[nH]c4ccc(OC5(C)CC5)cc34)ccn2)CC1=O [Example 33],IC50,[1],1 nM
CC1(Oc2ccc3[nH]nc(-c4ccnc(N5CCN(S(C)(=O)=O)CC5)c4)c3c2)CC1 [Example 31],IC50,[1],0.6 nM
CS(=O)(=O)N1CCCN(c2cc(-c3n[nH]c4ccc(OC5CC5)cc34)ccn2)CC1 [Example 17],IC50,[1],51 nM
C[C@@H]1CN(c2cc(-c3n[nH]c4ccc(OC5(C)CC5)cc34)ccn2)CCO1 [Example 29],IC50,[1],0.6 nM
same,inhibition at 1 µM,AURKB (Aurora B),11%
same,inhibition at 1 µM,BRAF V599E,18%
same,inhibition at 1 µM,CDK1/cyclin B,26%
same,inhibition at 1 µM,CHEK2 (CHK2),2%
same,inhibition at 1 µM,CLK2,53%
same,inhibition at 1 µM,DYRK1A,4%
same,inhibition at 1 µM,IRAK1,8%
same,inhibition at 1 µM,JAK3,46%
same,inhibition at 1 µM,MAPK1 (ERK2),18%
same,inhibition at 1 µM,MAPK8 (JNK1),54%
FC1(F)CCCN(c2cc(-c3n[nH]c4ccc(OC5CC5)cc34)ccn2)C1 [Example 20],IC50,[1],22 nM
CC1(Oc2ccc3[nH]nc(-c4ccnc(N5CC[C@@H](N)C5)c4)c3c2)CC1 [Example 36],IC50,[1],2 nM
